The subject of one data set is cathepsin K. As to the kind of experiment: Measurement of cathepsin K inhibitory activity (decomposition of fluorescent substrate Z-Gly-Pro-Arg-MCA). It counts as biochemical. As to the method: Cathepsin K was prepared as follows. […] Specifically, the decomposition of 20 μM Z-Gly-Pro-Arg-MCA by cathepsin K was measured in 100 mM potassium sodium phosphate, 1 mM EDTA, 8 mM Cysteine, pH 6.0. The reaction was performed at 37° C. for 30 minutes and then quenched by the addition of 2×10^−5 M of calpeptin.

Another data set concerns the target CYP3A4 (Homo sapiens, UniProt P08684). Nature of the data set: Measurement of CYP3A4 inhibitory activity (midazolam 1'-hydroxylation in human hepatic microsomes, DI and MBI). The conditions noted are these: human hepatic (liver) microsomes, probe midazolam (1'-hydroxylation), inventive compounds (Table 4); for IC50 at 10 min: direct inhibition, midazolam, 37° C. 10 minutes, read-out: CYP3A inhibitory IC50 (μmol/L) DI; for IC50: mechanism based inhibition, pre-incubated 37° C. 30 minutes before midazolam, read-out: CYP3A inhibitory IC50 (μmol/L) MBI. The format is in vitro ADME. As to the method:
The measurement of CYP3A4 inhibitory activity was performed with reference to the method of Newton et al. (Drug Metab. Dispos. 23, 154-158 (1995)) and the method described in JP 2007-236327 A.
A reaction mixture was prepared by mixing the compound of the present invention with midazolam as a typical substrate for CYP3A4 (see Food and Drug Administration (FDA) Guidance for Industry Drug Interaction Studies—Study Design, Data Analysis, Implications for Dosing, and Labeling Recommendations. FDA web site [online], www.fda.gov/downloads/drugs/guidancecomplianceregulatoryinformation/guidances/ucm292362.pdf), coenzyme NADPH-generating system, human hepatic microsomes, and a phosphate buffer. The reaction mixture was incubated at 37° C. for 10 minutes.
The coenzyme NADPH-generating system solution was prepared by mixing the materials shown in Table 1: the 13 mmol/L β-NADP^+ solution, the 33 mmol/L G-6-P solution, the solution of 10 U/mL G6PDH (Y) (manufactured by Oriental Yeast Co., Ltd.), and the 33 mmol/L MgCl2 solution in a ratio of 1:1:0.4:1 (v:v:v:v). […] The final concentrations of the compounds of the present invention and the comparative compounds were set at the levels considered to be necessary for the calculation of the IC50 values based on the results of the measurement performed at an arbitrary concentration in advance.
After the incubation, the reaction was quenched by the addition of an acetonitrile solution to the reaction mixture. The amount of 1′-hydroxymidazolam produced (the metabolite produced from midazolam by CYP3A4) was measured in the quenched sample with a high-performance liquid chromatography tandem mass spectrometer (LC-MS/MS). Each IC50 value for DI (direct inhibition) was determined from the amount of the produced 1′-hydroxymidazolam and the final concentration of the compound of the present invention or the comparative compound in the reaction mixture.
MBI (mechanism based inhibition) was evaluated as follows. After the reaction mixture not containing midazolam (but containing the compound of the present invention or the comparative compound, the coenzyme NADPH-generating system, the human hepatic microsomes, and the phosphate buffer) was pre-incubated at 37° C. for 30 minutes, midazolam was added to the reaction mixture. The reaction mixture was then incubated at 37° C. for 10 minutes. Subsequently, the reaction was quenched by the addition of an acetonitrile solution to the reaction mixture. The amount of 1′-hydroxymidazolam produced was measured in the quenched sample with an LC-MS/MS. As in the case of DI, each IC50 value for MBI was determined from the amount of the produced 1′-hydroxymidazolam and the final concentration of the compound of the present invention or the comparative compound in the reaction mixture.

Sequence of CYP3A4 (P08684 2-503): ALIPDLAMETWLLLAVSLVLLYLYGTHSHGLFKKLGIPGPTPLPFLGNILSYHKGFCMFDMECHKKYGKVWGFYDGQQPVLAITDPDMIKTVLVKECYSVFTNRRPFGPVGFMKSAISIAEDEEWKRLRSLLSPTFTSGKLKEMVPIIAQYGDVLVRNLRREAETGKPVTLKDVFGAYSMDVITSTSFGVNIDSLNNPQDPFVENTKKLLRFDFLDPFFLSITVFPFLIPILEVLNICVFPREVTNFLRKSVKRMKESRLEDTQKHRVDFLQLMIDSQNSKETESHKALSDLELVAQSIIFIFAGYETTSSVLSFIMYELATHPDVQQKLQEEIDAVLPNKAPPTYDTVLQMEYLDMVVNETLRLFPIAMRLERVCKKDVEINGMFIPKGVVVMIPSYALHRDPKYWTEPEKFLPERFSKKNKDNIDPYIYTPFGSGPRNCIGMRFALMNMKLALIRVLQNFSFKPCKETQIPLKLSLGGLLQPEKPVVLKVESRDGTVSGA

`CC(C)[C@H](NC(=O)C1(NC(=O)N2CCSC2)CCCCC1)C(=O)C(=O)N[C@H]1CCCCNC1=O` [Compound 1] registered a CYP/CatK in the data set with cathepsin K of 56555. Besides, at CYP3A4, the IC50 at 10 min was determined as 43.5 µmol/L and the IC50 was 44.4 µmol/L.

As for `CC(C)[C@H](NC(=O)C1(NC(=O)N2CCCC2)CCCCC1)C(=O)C(=O)N[C@H]1CCCCNC1=O` [Compound 2], the CYP/CatK in the data set on cathepsin K is reported as 52214. At CYP3A4, the IC50 at 10 min was 101 µmol/L and the IC50 turned out to be 73.1 µmol/L.

For `CC(C)[C@H](NC(=O)C1(NC(=O)[C@H]2CCCO2)CCCCC1)C(=O)C(=O)N[C@H]1CCCCNC1=O` [Compound 3], the CYP/CatK in the data set on cathepsin K was determined as 40294. In addition, on CYP3A4, the IC50 at 10 min came out at 208 µmol/L and the IC50 was 137 µmol/L.

Source of the values: patent publication US9562042B2, “α-oxoacyl amino-caprolactam” (Seikagaku Corporation, priority 2013, dated 2017).
